Among the data in PubChem BioAssay (NCI) are GI50 and TGI values, retold here.

Common to all, as to assay: growth of human tumour cells (NCI), 48 h
In experiment [1] the test system is SN12C renal.
Experiment [2] has as its system ACHN renal.
The subject of experiment [3] is SR leukemia.
Experiment [4] relates to UO-31 renal.
Experiment [5] deals with SK-MEL-28 melanoma.
Experiment [6] has as its system SK-MEL-2 melanoma.
Experiment [7] has as its system HOP-92 NSCLC.
Experiment [8] has as its system SNB-75 CNS.
Experiment [9] relates to HCT-116 colon.
In experiment [10] the test system is NCI-H23 lung.

Values joined by “and” are separate entries in the source; they are usually repeats but may differ in a detail not shown here. Identical values can stand only once.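 Each compound was tested at five concentrations against cells in 96-well plates for 48 hours. Here, GI50 denotes the concentration required for 50% inhibition of growth. TGI denotes the concentration required for complete inhibition of growth.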

Regarding `C=CC/C(=C\COP(=O)(OCc1ccc([N+](=O)[O-])o1)N(C)CCCCCl)CC/C=C(\C)CCC=C(C)C` (configuration not stated), the GI50 in experiment [1] was 13.6 µM; in [2], 15.5 µM; in experiment [3], 3.46 µM; in [4], 12.6 µM; in experiment [5], 17.2 µM; in experiment [6], 13.6 µM. For the same compound, the GI50 is 14.5 µM in [7], 13.5 µM in [8] and 3.76 µM in experiment [9]. The TGI in [1] came out at 26.4 µM; in experiment [2], 30.2 µM; in experiment [3] it was 41.8 µM; in [4], 25.1 µM; in experiment [5], 32.9 µM; in experiment [6], 26.4 µM. The TGI in [7] came to 27.6 µM; in [8], 29.1 µM; in experiment [9], 18 µM.

Take `COc1ccc(-c2cc(-c3cc(Cl)cc(Br)c3O)[nH]c(=O)n2)cc1`: the TGI in [1] was found to be 32.3 µM; in experiment [2] it was 27.7 µM; in experiment [3], 51.8 µM; in [10] it was 29.4 µM; in experiment [4], 34.7 µM; in experiment [5], 44.7 µM. Further, the TGI in [7] was 34.7 µM; in experiment [8], 38.3 µM; in experiment [9], 24.5 µM.

Turning to `CC(/C=C/c1ccccc1)=N\NC(N)=S`, the TGI in experiment [1] was over 100 µM; in experiment [2], over 100 µM; in [3], 65.3 µM; in experiment [10], over 100 µM; in experiment [4], over 100 µM; in experiment [5] it was over 100 µM. Further, the TGI in experiment [7] and in [9] was over 100 µM throughout.

For `CCCCN[C@H]1C2C3CC4C5CC(C42)C1(C)C53` (some centres not stated), the TGI in [1], in experiment [2], in [3], in [4], in [5] and in experiment [6] was over 100 µM each time. Further, the TGI in experiment [7], in experiment [8] and in [9] was over 100 µM throughout.

`Cc1ccc(C2=Nc3c(N)ncnc3NC(c3ccc4c(c3)OCO4)C2)cc1` (configuration not stated): the GI50 in [1] was 8.61 µM; in [2], 7.74 µM; in [3] it was 0.249 µM; in experiment [10], 10.2 µM; in experiment [4], 10.8 µM; in experiment [5] it was 10.2 µM. The GI50 in [8] is 4.55 µM. For the same compound, the TGI is over 100 µM in experiment [1]; 36.7 µM in experiment [2]; 3.85 µM in experiment [3]; 63.3 µM in experiment [10]; 26.5 µM in experiment [4]; 38 µM in experiment [5]. The compound further registered a TGI in [8] of 37.2 µM.

In the case of `C#CC1(O)c2ccccc2C(=O)c2ccccc21`, the TGI in experiment [1], in experiment [2], in [3], in experiment [10], in [5] and in [6] was over 100 µM each time. Besides, the TGI in [7] is 99.6 µM; in experiment [9] it was over 100 µM.

As for `C[n+]1c(-c2ccc(/C=N/NC(=O)c3ccc(C(=O)N/N=C/c4ccc(-c5cn6ccccc6[n+]5C)cc4)cc3)cc2)cn2ccccc21`, the GI50 was 213 µM in [1]; 752 µM in experiment [2]; 297 µM in experiment [10]; 227 µM in experiment [4]; 258 µM in experiment [5]; 270 µM in experiment [6]. Besides, the GI50 was 198 µM in experiment [7] and over 1000 µM in [9]. Besides, the TGI was 493 µM in experiment [1]; over 1000 µM in experiment [2]; 218 µM in experiment [3]; 717 µM in experiment [10]; > 73.3 µM and 955 µM in [4]; 406 µM in experiment [5]. Further, the TGI in [6] was 498 µM; in experiment [7], 362 µM; in [9], over 1000 µM.

Take `CCN(CC)C(=O)N1CCN(C=S)CC1`: the TGI in experiment [1], in [2], in experiment [3], in [10], in experiment [4] and in experiment [5] was over 100 µM each time. For the same compound, the TGI in experiment [6], in experiment [8] and in experiment [9] was over 100 µM in each case.

With `CC1C[C@]2(C[C@@H](C)C(=O)O2)O[C@@H]2CC3(C)[C@@H]4CCC5C(C)(C)OC(=O)C[C@H]6OO[C@]4(CC[C@]3(C)C12)CC56O` (some centres not stated), the TGI in [1], in [2], in experiment [3], in [10], in [4] and in [5] was over 100 µM in each case. Besides, the TGI in experiment [6] and in experiment [8] was over 100 µM throughout.

Consider `C=C(CC(=O)O)C(=O)O` (tested in a mixture with another compound), for which the GI50 in experiment [1], in experiment [2], in [3], in experiment [10], in experiment [4] and in experiment [5] was over 50 µg/mL each time. Also, the GI50 in experiment [6], in experiment [7] and in [9] was over 50 µg/mL throughout. Also, the TGI in experiment [1], in [2], in experiment [3], in experiment [10], in experiment [4] and in experiment [5] was over 50 µg/mL throughout. Besides, the TGI in experiment [6], in experiment [7] and in experiment [9] was over 50 µg/mL each time.

Consider `O=C1Nc2ccccc2/C1=C\c1nc(C2CCN(S(=O)(=O)c3ccc(F)cc3)CC2)n2ccccc12`, for which the GI50 in experiment [1] is 3.05 µM; in experiment [2] it was 4.07 µM; in experiment [3], over 100 µM; in experiment [10], 4.29 µM; in experiment [5] it was over 100 µM; in experiment [6] it was 2.08 µM. Also, in experiment [9], the GI50 is 13.3 µM. Besides, the TGI in experiment [1] was over 100 µM; in [2] it was over 100 µM; in [3], over 100 µM; in [10], 68.4 µM; in [5], over 100 µM; in [6], 7.35 µM. In experiment [9], the TGI was over 100 µM.
